Experiments:
[1] = Pharmacokinetic assay in rats; format: in vivo; conditions: male, rat, po, SD rats, p.o. 5 mg/kg, plasma, 0.5% CMC-Na (1% Tween 80); for AUC(0-t): read-out: Area under curve AUC0-t; for MRT inf: read-out: Average residence time MRT0-∞; for half-life: read-out: Half life t1/2 (converted); for Tmax: read-out: Peak time tmax; for Cmax: read-out: Plasma concentration Cmax
Experimental: Test Example 4. Pharmacokinetic Assay in Rats
SD rats were used as test animals. The pharmacokinetic behavior of the compounds of Examples was studied in rat body (plasma) by orally administration at a dose of 5 mg/kg.
Male SD rats (3 rats per group), purchased from Shanghai Jiesijie Laboratory Animal Co., LTD, with Certificate No.: SCXK (Shanghai) 2013-0006 N0.311620400001794.
5 g of hydroxyethyl cellulose (HEC, CMC-Na, viscosity: 800-1200 Cps) was weighed and dissolved in 1000 mL of purified water, followed by addition of 10 g of Tween80.
After an overnight fast, male SD rats (3 rats per group) were administered p.o. with the test compound at a dose of 5 mg/kg and a volume of 10 mL/kg.
0.2 mL of blood was taken from the jugular vein of the rat before administration and at 0, 0.5, 1, 2, 4, 6, 8 and 24 hours after administration. The samples were stored in EDTA-K2 tubes, and centrifuged for 6 minutes at 4° C., 6000 rpm to separate the plasma. The plasma samples were stored at −80° C.
1) 160 μL of acetonitrile was added to 40 μL of the plasma sample for precipitation, and then the mixture was centrifuged at 3500×g for 5 to 20 minutes.
2) After the above process, 100 μL of the supernatant was taken to analyze the concentration of the test compound by LC/MS/MS.
2.7 Liquid Chromatography Analysis • Liquid chromatography condition: Shimadzu LC-20AD pump • Mass spectrometry condition: AB Sciex API 4000 mass spectrometer • Chromatographic column: phenomenex Gemiu 5 um C18 50×4.6 mm • Mobile phase: Eluent A was 0.1% formic acid in water, and Eluent B was acetonitrile • Flow rate: 0.8 mL/min • Elution time: 0-4.0 minutes, the eluent is as follows:
The main parameters of pharmacokinetics were calculated by WinNonlin 8.2.

[2] = target: T1, CYP450 enzyme isoform 1A2 (Homo sapiens, UniProt P05177); test: CYP enzyme single-point inhibition assay, 1A2; format: in vitro ADME; conditions: human liver microsome, single-point method
T1 construct: single-point method using human liver microsome incubation system; from tissue; host or cells: human liver microsomes
T1 sequence (P05177 1-516): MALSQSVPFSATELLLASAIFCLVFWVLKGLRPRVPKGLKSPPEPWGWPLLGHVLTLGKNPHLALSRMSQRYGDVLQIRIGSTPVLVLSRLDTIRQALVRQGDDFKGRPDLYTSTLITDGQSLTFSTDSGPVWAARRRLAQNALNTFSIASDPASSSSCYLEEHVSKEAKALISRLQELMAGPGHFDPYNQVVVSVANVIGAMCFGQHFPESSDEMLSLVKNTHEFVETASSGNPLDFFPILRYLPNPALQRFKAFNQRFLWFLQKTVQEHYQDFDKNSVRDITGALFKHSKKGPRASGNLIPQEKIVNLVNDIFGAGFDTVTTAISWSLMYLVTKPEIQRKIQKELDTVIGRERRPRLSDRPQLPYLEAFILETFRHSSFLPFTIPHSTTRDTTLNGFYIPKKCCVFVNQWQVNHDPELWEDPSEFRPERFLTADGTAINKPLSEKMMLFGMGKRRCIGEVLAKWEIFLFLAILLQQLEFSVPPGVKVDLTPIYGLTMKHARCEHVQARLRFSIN
Experimental: Test Example 7. CYP Enzyme Single-Point Inhibition Assay
The inhibition of the compounds on CYP450 enzyme isoformwas rapidly predicted by single-point method using human liver microsome incubation system.
2.5 mM NADPH: 4.165 mg of NADPH (reduced nicotinamide adenine dinucleotide phosphate) was weighed, followed by addition of 100 mM phosphate buffer to 2 mL. 0.25 mg/mL microsome solution: 4 mL of 100 mM phosphate buffer was added to 50 μL of 20 mg/mL microsome solution and mixed well.
The test compound of the Example was weighed, diluted to 10 mM with DMSO and then to 100 μM with 100 mM phosphate buffer.
1. 40 μL of liver microsome, 10 μL of substrate and 10 μL of the test compound were added to a 96-well plate and pre-incubated for 3 min.
2. 40 μL of NADPH was added.
3. 300 μL of acetonitrile stop solution containing internal standard was added at 20 min.
4. The sample was centrifuged and injected.

[3] = target: T2, hERG potassium channel (Homo sapiens, UniProt Q12809); test: hERG potassium channel inhibition activity assay (Qpatch, CHO-hERG cells); format: cell-based; conditions: Qpatch whole-cell, highest test concentration 40 μM
T2 construct: expressed in transfected cells; host or cells: CHO
T2 sequence (Q12809 whole entry): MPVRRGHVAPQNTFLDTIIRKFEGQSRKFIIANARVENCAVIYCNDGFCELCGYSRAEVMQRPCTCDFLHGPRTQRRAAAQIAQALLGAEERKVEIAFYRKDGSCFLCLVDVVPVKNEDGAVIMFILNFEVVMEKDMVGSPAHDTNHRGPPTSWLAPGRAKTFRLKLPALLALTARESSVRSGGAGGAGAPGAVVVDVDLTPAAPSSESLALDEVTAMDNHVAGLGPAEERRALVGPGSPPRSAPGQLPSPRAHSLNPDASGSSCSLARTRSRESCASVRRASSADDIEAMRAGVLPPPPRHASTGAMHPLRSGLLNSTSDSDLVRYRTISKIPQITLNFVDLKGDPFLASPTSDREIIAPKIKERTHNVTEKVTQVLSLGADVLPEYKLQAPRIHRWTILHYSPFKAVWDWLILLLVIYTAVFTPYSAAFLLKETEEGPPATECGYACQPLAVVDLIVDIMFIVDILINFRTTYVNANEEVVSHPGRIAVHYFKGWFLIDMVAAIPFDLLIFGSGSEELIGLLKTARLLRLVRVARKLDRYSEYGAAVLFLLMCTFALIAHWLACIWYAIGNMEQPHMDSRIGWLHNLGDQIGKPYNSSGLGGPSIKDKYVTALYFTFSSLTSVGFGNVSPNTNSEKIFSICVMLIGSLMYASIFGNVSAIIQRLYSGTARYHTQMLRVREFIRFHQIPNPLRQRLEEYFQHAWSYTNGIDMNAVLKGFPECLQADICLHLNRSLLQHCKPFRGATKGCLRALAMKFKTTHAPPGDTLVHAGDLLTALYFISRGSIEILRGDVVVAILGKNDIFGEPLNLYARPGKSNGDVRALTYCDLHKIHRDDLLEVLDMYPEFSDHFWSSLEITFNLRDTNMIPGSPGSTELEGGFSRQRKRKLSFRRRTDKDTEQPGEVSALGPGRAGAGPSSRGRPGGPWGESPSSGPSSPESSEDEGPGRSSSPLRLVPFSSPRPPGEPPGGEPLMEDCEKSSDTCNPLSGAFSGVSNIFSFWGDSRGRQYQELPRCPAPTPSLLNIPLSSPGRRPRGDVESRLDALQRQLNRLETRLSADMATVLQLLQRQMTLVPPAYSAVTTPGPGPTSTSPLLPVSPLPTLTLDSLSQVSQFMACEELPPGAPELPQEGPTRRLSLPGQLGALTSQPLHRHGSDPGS
Experimental: Test Example 8. hERG Potassium Channel Inhibition Activity Assay
7.1.1 CHO-hERG cells were cultured in a 175 cm^2 culture flask. After the cell density reached 60-80%, the culture solution was removed. The cells were washed with 7 mL of PBS once, and dissociated with 3 mL of Detachin.
7.1.2 After completion of dissociation, the cells were neutralized with 7 mL of culture solution. The solution was centrifuged, and the supernate was removed. The cells were resuspended in 5 mL of culture solution. The cell indensity is ensured as 2˜5×10^6/mL.
Single cell sealing impedance and formation of whole-cell mode were automatically performed by Qpatch instrument. After obtaining the whole-cell recording mode, the cell was clamped at −80 mV. The cell first underwent pre-voltage of −50 mV for 50 msec, then underwent depolarization stimulation at +40 mV for 5 sec, and then underwent repolarization at −50 mV for 5 sec, and then the voltage returned to −80 mV The cell underwent the stimulation at the voltage every 15 sec. The data were recorded for 2 min, then extracellular fluid was administrated, and then the data were recorded for 5 min. Then, the administration process begun. The concentration of the test compound started from the lowest concentration, and each test concentration was administrated for 2.5 min. At least three cells (n≥3) were tested for each concentration.
4.1 20 mM mother liquor of the compound was diluted with extracellular fluid. […] of extracellular fluid was added to 5 μL of 20 mM mother liquor of the compound to obtain a concentration of 40 μM (500-fold dilution). The solution was subjected to a 3-fold serial dilution with extracellular fluid containing 0.2% DMSO to obtain a required final concentration.
This concentration of DMSO had no effect on hERG potassium channel.
The experimental data was analyzed by XLFit software.

Structure (SMILES) | AUC(0-t) [1] [ng·h/mL] | MRT inf [1] [h] | half-life [1] [h] | Tmax [1] [h] | Cmax [1] [ng/mL] | IC50 [2] [µM] | IC50 [3] [µM]
CCc1cc2n(CC(=O)Nc3ccc(F)cn3)c(=O)c3ccc(C(F)(F)F)nc3n2n1 [Example 34, 2-(2-Ethyl-5-oxo-8-(trifluoromethyl)pyrazolo[1,5-a]pyrido[3,2-e]pyrimidin-4(5H)-yl)-N-(5-fluoropyridin-2-yl)acetamide] | 5780 | 6.2 | 3.5 | 4 | 904 | 24.9 | –
O=C(Cn1c(=O)c2ccc(C(F)(F)F)nc2n2nc(Br)cc12)Nc1ccc(F)cn1 [Example 61-A, 2-(2-bromo-5-oxo-8-(trifluoromethyl)pyrazolo[1,5-a]pyrido[3,2-e]pyrimidin-4(5H)-yl)-N-(5-fluoropyridin-2-yl)acetamide] | 12000 | 5.8 | 8 | 2 | 1550 | 72.1 | > 10
N#Cc1cc2n(CC(=O)Nc3ccc(F)cn3)c(=O)c3ccc(C(F)(F)F)nc3n2n1 [Example 68, 2-(2-Cyano-5-oxo-8-(trifluoromethyl)pyrazolo[1,5-a]pyrido[3,2-e]pyrimidin-4(5H)-yl)-N-(5-fluoropyridin-2-yl)acetamide] | 9850 | 3.5 | 1.8 | 4 | 1880 | > 100 | 18.4
O=C(Cn1c(=O)c2ccc(C(F)(F)F)nc2n2nccc12)Nc1ccc(F)cn1 [Example 78, N-(5-Fluoropyridin-2-yl)-2-(5-oxo-8-(trifluoromethyl)pyrazolo[1,5-a]pyrido[3,2-e]pyrimidin-4(5H)-yl)acetamide] | 6810 | 3.7 | 1.7 | 2 | 1220 | > 100 | > 10
N#Cc1cnn2c3nc(C(F)(F)F)ccc3c(=O)n(CC(=O)Nc3ccc(F)cn3)c12 [Example 80, 2-(3-Cyano-5-oxo-8-(trifluoromethyl)pyrazolo[1,5-a]pyrido[3,2-e]pyrimidin-4(5H)-yl)-N-(5-fluoropyridin-2-yl)acetamide] | 21300 | 13.6 | 11.3 | 4 | 2190 | – | > 20
